From patent US11903387B2 (priority 2016, dated 2024)
Where two headings read alike, the source gives them in different places.

How the values were obtained:
[1] = test system: Pseudoperonospora cubensis; assay: Test 2: control effect against cucumber downy mildew; format: in vivo
Phytophthora infestans = assay: whole plant or invertebrate; format: in vivo
[2] = Pseudoperonospora cubensis, applied alone, 2 ppm, read-out: Test 2 preventive value, Measured
[3] = Pseudoperonospora cubensis, applied alone, 10 ppm, read-out: Test 2 preventive value, Measured
[4] = Phytophthora infestans, in Solanum lycopersicum, read-out: Test 1 preventive value, Measured, applied alone, 2 ppm
[5] = Phytophthora infestans, in Solanum lycopersicum, read-out: Test 1 preventive value, Measured, applied alone, 10 ppm
[6] = Phytophthora infestans, in Solanum lycopersicum, read-out: Test 1 preventive value, Measured, applied alone, 50 ppm
[7] = Phytophthora infestans, in Solanum lycopersicum, read-out: Test 1 Measured preventive value, component (b) alone, 2 ppm
[8] = Phytophthora infestans, in Solanum lycopersicum, read-out: Test 1 Measured preventive value, component (b) alone, 10 ppm
[9] = Phytophthora infestans, in Solanum lycopersicum, read-out: Test 1 Measured preventive value, component (b) alone, 50 ppm
[10] = component (b) alone 0.4 ppm, average of three repeats
[11] = component (b) alone 2 ppm, average of three repeats
[12] = component (b) alone 10 ppm, average of three repeats

## CO/N=C(/C(=O)OC)c1ccccc1COc1ccccc1C [Kresoxim-methyl]
[1]; [2]
  pest or weed control at 2 ppm: 0%
[1]; [3]
  pest or weed control at 10 ppm: 7.5%
[1]; Pseudoperonospora cubensis, applied alone, 50 ppm, read-out: Test 2 preventive value, Measured
  pest or weed control at 50 ppm: 2.5%
Phytophthora infestans; [4]
  pest or weed control at 2 ppm: 50%
Phytophthora infestans; [5]
  pest or weed control at 10 ppm: 90.7%
Phytophthora infestans; [6]
  pest or weed control at 50 ppm: 99.8%

## CCC(C)(NC(=O)c1cc(Cl)c(C)c(Cl)c1)C(=O)CCl (centres unmarked) [Zoxamide]
[1]; component (b) alone, 2 ppm
  Test 2 Measured preventive value: 94
[1]; component (b) alone, 10 ppm
  Test 2 Measured preventive value: 97.3
[1]; component (b) alone, 50 ppm
  Test 2 Measured preventive value: 98.8
Phytophthora infestans; [7]
  pest or weed control at 2 ppm: 83.3%
Phytophthora infestans; [8]
  pest or weed control at 10 ppm: 95%
Phytophthora infestans; [9]
  pest or weed control at 50 ppm: 99%

## O=[N+]([O-])c1cc(C(F)(F)F)c(Cl)c([N+](=O)[O-])c1Nc1ncc(C(F)(F)F)cc1Cl [Fluazinam]
[1]; Pseudoperonospora cubensis, applied alone, 0.4 ppm, read-out: Test 2 preventive value, Measured
  pest or weed control at 0.4 ppm: 0%
[1]; [2]
  pest or weed control at 2 ppm: 90.8%
[1]; [3]
  pest or weed control at 10 ppm: 100%
Phytophthora infestans; [4]
  pest or weed control at 2 ppm: 0%
Phytophthora infestans; [5]
  pest or weed control at 10 ppm: 16.7%
Phytophthora infestans; [6]
  pest or weed control at 50 ppm: 60.8%

## CCNC(=O)NC(=O)/C(C#N)=N/OC [Cymoxanil]
[1]; component (b) alone, 2 ppm
  Test 2 Measured preventive value: 0
[1]; component (b) alone, 10 ppm
  Test 2 Measured preventive value: 0
[1]; component (b) alone, 50 ppm
  Test 2 Measured preventive value: 46.3
Phytophthora infestans; [7]
  pest or weed control at 2 ppm: 31.7%
Phytophthora infestans; [8]
  pest or weed control at 10 ppm: 78.3%
Phytophthora infestans; [9]
  pest or weed control at 50 ppm: 100%

## COC(=O)CC(NC(=O)[C@@H](NC(=O)OC(C)C)C(C)C)c1ccc(Cl)cc1 (some centres unmarked) [Valifenalate]
[1]; [10]
  Test 2 Measured preventive value: 0
[1]; [11]
  Test 2 Measured preventive value: 57.5
[1]; [12]
  Test 2 Measured preventive value: 93.5
[1]; component (b) alone, 0.4 ppm
  Test 2 Measured: 4
  Test 2 Measured preventive value: 0
[1]; component (b) alone, 2 ppm
  Test 2 Measured: 51.8
  Test 2 Measured preventive value: 57.5
[1]; component (b) alone, 10 ppm
  Test 2 Measured: 93
  Test 2 Measured preventive value: 93.5
Phytophthora infestans; [10]
  Test 1 Measured preventive value: 20.0
Phytophthora infestans; [11]
  Test 1 Measured preventive value: 51.7
Phytophthora infestans; [12]
  Test 1 Measured preventive value: 96.2
Phytophthora infestans; component (b) alone, 0.4 ppm
  Test 1 Measured: 10.0
  Test 1 Measured preventive value: 20.0
Phytophthora infestans; component (b) alone, 2 ppm
  Test 1 Measured: 45.2
  Test 1 Measured preventive value: 51.7
Phytophthora infestans; component (b) alone, 10 ppm
  Test 1 Measured: 97.0
  Test 1 Measured preventive value: 96.2

## Cc1cccc2sc3nncn3c12 [Tricyclazole]
[1]; Pseudoperonospora cubensis, component (b) alone 20 ppm, read-out: Test 2 Measured
  pest or weed control at 20 ppm: 0%
[1]; Pseudoperonospora cubensis, component (b) alone 100 ppm, read-out: Test 2 Measured
  pest or weed control at 100 ppm: 0%
[1]; Pseudoperonospora cubensis, component (b) alone 500 ppm, read-out: Test 2 Measured
  pest or weed control at 500 ppm: 22.5%
Phytophthora infestans; Phytophthora infestans, in Solanum lycopersicum, read-out: Test 1 Measured, component (b) alone 20 ppm
  pest or weed control at 20 ppm: 0%
Phytophthora infestans; Phytophthora infestans, in Solanum lycopersicum, read-out: Test 1 Measured, component (b) alone 100 ppm
  pest or weed control at 100 ppm: 0%
Phytophthora infestans; Phytophthora infestans, in Solanum lycopersicum, read-out: Test 1 Measured, component (b) alone 500 ppm
  pest or weed control at 500 ppm: 70%

## COc1ccc(C(=CC(=O)N2CCOCC2)c2ccc(Cl)cc2)cc1OC [Dimethomorph]
[1]; component (b) alone, 0.4 ppm
  Test 2 Measured preventive value: 0
[1]; component (b) alone, 2 ppm
  Test 2 Measured preventive value: 62.5
[1]; component (b) alone, 10 ppm
  Test 2 Measured preventive value: 95.5
Phytophthora infestans; Phytophthora infestans, in Solanum lycopersicum, read-out: Test 1 Measured preventive value, component (b) alone, 0.4 ppm
  pest or weed control at 0.4 ppm: 11.7%
Phytophthora infestans; [7]
  pest or weed control at 2 ppm: 26.7%
